Consider 1 compound from patent US8188075B2, “Triazole compounds that modulate HSP90 activity” (Synta Pharmaceuticals Corp., priority 2006, dated 2012).

The test system of series [1] is human umbilical vein endothelial cell (HUVEC). Briefly: in vitro HUVEC migration assay (time-lapse imaging of scraped confluent cultures). The series is classed as cell-based. On the procedure: To examine if the compounds of the invention affect endothelial cell function, an in vitro human umbilical vein endothelial cell (HUVEC) migration assay was performed in the presence of Compound 226. HUVEC cells (ATCC, VA) (passage number 4) were cultured in EGM2 medium (Cambrex, Mass.) on 12-well plates and performed time-lapse imaging with the live cell imaging system on an inverted microscope supplied with 6-7% CO2. The temperature was kept at 37° C. Images were taken every 30 minutes using the 2× objective for up to 106 hr (results in FIGS. 1, 2 and 3), or, every 60 seconds using the 20× objective for 30 min (for FIG. 4). Confluent HUVEC cultures were scraped similarly to make a blank area, followed by culturing in HUVEC medium for 15 hr without treatment. The migration areas, which were imaged as time-lapse sequences for each well, were used as a basis to standardize/correct migration rates. Then, migration of cells under different treatments was imaged at the same time to generate time-lapse image sequences for each well. Time-lapse movies were further analyzed by measuring areas that were covered by migrating cells. […] The red lines indicate the front lines of migrating cells. DMSO (1:100) treated cells migrated rapidly and covered the entire blank (wounded) area at 106 hr. […] During experiments, HUVEC cells were activated by the presence of VEGF (Cambrex, Mass.) and basic FGF (Cambrex, Mass.).
In addition to the analysis of HUVEC cell migration, HUVEC behavior was also tracked during above treatments.

A further series relates to HUVEC. Briefly: HUVEC killing (separate reference experiment). Type of series: cell-based. As to conditions: Homo sapiens.
Series [2] deals with VE-cadherin junctions between HUVEC cells. Briefly: immunofluorescence study of VE-cadherin junctions between HUVEC cells. Type of series: cell-based, human. The following applies: 24 hrs. As to the method: An immunofluorescence study was performed by using anti-VE-cadherin antibodies (1:1 mixed, obtained from Amersham Biosciences, NJ, and Santa Cruz Biotechnology, CA) to examine VE-cadherin junctions between HUVEC cells. HUVEC cells were treated with DMSO or Compound 226 (10, 100 and 1000 nM) for 24 hrs and fixed for immunostaining. DMSO concentration was 1:100 for all treatments. To boost the immunofluorescence signal, cells were stained with a mixture of 2 polyclonal anti-human VE-cadherin Abs followed by staining with a mixture of fluorescent secondary antibodies. […] Non-DMSO treated cells gave a similar result to those with DMSO treatment (data not shown). […] This effect could result in limited motility of the cells and reducing permeability of the endothelium, thus contributing to the cell migration inhibition and the potential anti-angiogenesis effect of Compound 226.

Consider `CC(C)c1cc(-c2nnc(O)n2-c2ccc3c(ccn3C)c2)c(O)cc1O` [Compound 226, 3-(2,4-dihydroxy-5-isopropyl-phenyl)-4-(1-methyl-indol-5-yl)-5-hydroxy-[1,2,4] triazole], for which the “migration of HUVEC cells to the blank area” value in series [1] (100 nM and 1 μM, up to 106 hr, compared to DMSO, cells activated by VEGF and basic FGF) was “completely blocked migration”. Moreover, in series [1] (100 nM, 2× and 20× magnification (FIG. 4)), the “HUVEC cell-cell contact lines (morphology)” value is given as “Cell-cell contact lines disappeared”. The “movement of HUVEC cells in time-lapse videos (20× objective)” value in series [1] (100 nM, versus DMSO treated cells) was “significantly reduced movement”. Besides, the IC50 in series [1] (Homo sapiens, HUVEC, estimated from similar covered areas at 100 nM and 1 μM (FIG. 2), read-out: IC50 of the inhibition of HUVEC migration) is under 100 nM; in the series with HUVEC it was about 800 nM. The HUVEC cell shrinkage result in series [1] (after 24 hr treatment with 100 nM and 1 μM) is listed as “began to shrink”. In addition, in series [1] (at 24 hr (FIG. 3)), the “cell death of HUVEC during migration assay” value is listed as “no significant cell death”. For the same compound, the HUVEC cell survival result in series [1] (at 48 hr, 1 μM) was “majority of cells were alive”. Moreover, the “VE-cadherin staining in cell-cell junction regions” value in series [2] (10 nM, compared to DMSO) is given as “extremely strong”. Besides, the VE-cadherin staining areas entry in series [2] (100 nM) was “further increase the VE-cadherin staining areas”. In addition, in series [2] (1 μM), the VE-cadherin molecules distribution result was “Aggregations of VE-cadherin molecules appeared”.
